Data set [1] in a line: Aqueous solubility of solvent A at 20° C. The class given is physicochemical. Conditions: for Aqueous solubility: 20° C.
The nature of data set [2]: Log distribution coefficient of solvent A. The class given is physicochemical.

In turn, `CC(O)COc1ccccc1` (centres unmarked) [1-Phenoxy-2-propanol] gave an Aqueous solubility in data set [1] of 1.1 % by mass. In addition, in data set [2], the Log distribution coefficient came to 1.51.

As for `OCc1ccccc1` [Benzyl alcohol], the Aqueous solubility in data set [1] came to 4.29 % by mass. This compound registered a Log distribution coefficient in data set [2] of 1.03.

On to `OCCCc1ccccc1` [3-Phenyl-1-propanol], for which, in data set [1], the Aqueous solubility is reported as 0.568 % by mass. Further, the Log distribution coefficient in data set [2] came to 1.88.

Turning to `OCCc1ccccc1` [Phenethyl alcohol], the Aqueous solubility in data set [1] came to 2.2 % by mass.

On to `OCCOc1ccccc1` [2-Phenoxyethanol], for which the Aqueous solubility in data set [1] is 2.67 % by mass. In data set [1] (solvent A of ink 1, rounded value), the “aqueous solubility of the solvent A” value is reported as 2.7%. In data set [2], this compound yielded a Log distribution coefficient of 1.16.

In turn, `CC(O)Cc1ccccc1` (centres unmarked) [1-Phenyl-2-propanol] registered an Aqueous solubility in data set [1] of 0.58 % by mass. For the same compound, the Log distribution coefficient in data set [2] amounted to 1.71.

In data set [1], `OCCCCc1ccccc1` [4-Phenyl-1-butanol] registered an Aqueous solubility of 0.1 % by mass. The Log distribution coefficient in data set [2] is recorded as 2.4.

Source of the values: patent publication US10513623B2, “Aqueous ink, ink cartridge and image recording method” (CANON KABUSHIKI KAISHA, priority 2017, dated 2019).
